Measurements: patent publication US9714260B2, “Asymmetrical Si rhodamine and rhodol synthesis” (THE UNIVERSITY OF TOKYO, priority 2013, dated 2017)

Key:
rat liver microsomes = assay: In vitro experiment using rat liver microsomes (hypoxia vs normal oxygen); type: biochemical; conditions: 1 μM compound, 226 μg rat liver microsomes, 50 μM NADPH; ex 640 nm, em 660 nm
Text: The excitation wavelength was 640 nm and the fluorescence wavelength was 660 nm. In FIG. 26, Hyp is the measurement result for hypoxia and Nor is the measurement result for normal oxygen level.

[1] = Optical characteristics of dyes in phosphate buffered saline of pH 7.4; type: physicochemical
[2] = Fluorescence quantum yield of Compound 5 in various solvents; type: physicochemical
[3] = Optical characteristics of Compound 5 in pH 7.4 sodium phosphate; type: physicochemical; conditions: 0.1 sodium phosphate pH 7.4, 0.3% DMSO
Experimental: The fluorescence wavelength was 665 nm and the wavelength of the excitation light was 637 nm. The measurement was carried out in an aqueous solution of 0.1 sodium phosphate having a pH 7.4 and containing 0.3% DMSO. Cy 5.5 (ΦFl=0.23) in water was used as the fluorescence reference to determine the fluorescence quantum yield.

[4] = in water; cited from earlier work
[5] = Optical characteristics / pH profile of N-AcSi-Rhodol (Compound 9); type: physicochemical
Experimental: Measurement was carried out at various pH in 0.1M sodium phosphate solution containing 10% DMSO. The excitation wavelength was 503 nm.

[6] = in methanol; cited from earlier work
[7] = Optical characteristics / pH profile of Si-Rhodol (Compound 7); type: physicochemical
Experimental: The pH profile of the absorbance and fluorescence spectra of Si-Rhodol (Compound 7) was examined. Measurement was carried out at various pH in 0.1M sodium phosphate solution containing 1% DMSO. The excitation wavelengths were 507 nm (FIG. 13) and 584 nm (FIG. 14).

For `Cc1cccc(C)c1C1=c2cc3c(cc2[Si](C)(C)c2cc(/N=N/c4ccc(N(C)C)cc4)ccc21)=[N+](C)CC3` [Compound 14, diMeazoSiR650], the “change in fluorescence intensity in a hypoxic environment” value (rat liver microsomes) was “dramatic increase in fluorescence intensity”, the “Φn (absolute fluorescence quantum yield measured using integrating spheres)” value [1] was 0.002 and the λabs. max [1] was 587 nm.

In the case of `Cc1ccccc1C1=c2cc3c(cc2[Si](C)(C)c2cc(N)ccc21)=[N+](C)CC3` [Compound 5, 2MeIndoSiR], the “Φn (absolute fluorescence quantum yield measured using integrating spheres)” value [1] is reported as 0.14, the λabs. max [1] is reported as 637 nm and the λfl. max [1] is reported as 664 nm. For the same compound, the “Fluorescence quantum yield ΦF1” value ([2]; 20% FBS) was 0.36, the “Fluorescence quantum yield ΦF1” value ([2]; Acetone) was 0.39 and the “Fluorescence quantum yield ΦF1” value ([2]; CH3CN) was 0.42. For the same compound, the “Fluorescence quantum yield ΦF1” value ([2]; CHCl3) was 0.89, the “Fluorescence quantum yield ΦF1” value ([2]; DMF) was 0.39 and the “Fluorescence quantum yield ΦF1” value ([2]; DMSO) was 0.35. The “Fluorescence quantum yield ΦF1” value ([2]; FBS) was 0.35, the “Fluorescence quantum yield ΦF1” value ([2]; MeOH) was 0.46 and the ε [3] was 54000 M⁻¹ cm⁻¹. The λem [3] was 665 nm, the λex [3] was 641 nm and the Φfl ([3]; Cy 5.5 in water as reference) was 0.18.

For `Cc1ccccc1C1=c2cc3c(cc2[Si](C)(C)c2cc(/N=N/c4ccc(N(C)C)cc4)ccc21)=[N+](C)CC3` [Compound 11, 2MeazoSiR650], the “change in fluorescence intensity in a hypoxic environment” value (rat liver microsomes) was “dramatic increase in fluorescence intensity”, the “Φn (absolute fluorescence quantum yield measured using integrating spheres)” value [1] was <0.001 and the λabs. max [1] was 590 nm.

In the case of `CCN1\C(=C/C=C/C=C/C2=[N+](CCCCCC(=O)O)c3ccc4c(S(=O)(=O)O)cc(S(=O)(=O)O)cc4c3C2(C)C)C(C)(C)c2c1ccc1c(S(=O)(=O)[O-])cc(S(=O)(=O)O)cc21` [Cy 5.5], the “ΦFl of fluorescence reference” value [4] is listed as 0.23.

With `CC(=O)Nc1ccc2c(c1)[Si](C)(C)C1=CC(=O)C=CC1=C2c1ccccc1C` [Compound 9, N-AcSi-Rhodol] the λabs ([5]; 0.1M sodium phosphate, 10% DMSO) was 455 nm, the λem ([5]; 0.1M sodium phosphate, 10% DMSO, excitation 503 nm) was 590 nm and the λabs ([5]; 0.1M sodium phosphate, 10% DMSO, listed as N-AcSi-Rhodol) was ~450 nm. For the same compound, the ΦFL ([5]; pH: 7.4) was 0.17 (pH: 7.4) and the ε ([5]; pH: 10.0) was 7000 (pH: 10.0) M^−1cm^−1.

In the case of Cresyl violet, the “Φfl of fluorescence reference” value [6] is given as “^bCresyl violet in methanol (Φfl = 0.54) was used as the fluorescence reference”.

In the case of `Cc1ccccc1C1=C2C=CC(=O)C=C2[Si](C)(C)c2cc(N)ccc21` [Compound 7, Si-Rhodol], the ε ([7]; 0.1M sodium phosphate, 1% DMSO) is reported as 40,000 M^−1cm^−1, the λem ([7]; 0.1M sodium phosphate, 1% DMSO) is reported as 605 nm and the “absorption maximum (FIG. 14)” value ([7]; FIG. 14, excitation wavelength 584 nm) is reported as ~600 nm. The Φfl ([7]; pH: 3.0) was 0.28 (pH: 3.0), the λabs ([7]; pH: 3.0) was 507 (pH: 3.0) nm and the Φfl ([7]; pH: 7.4) was 0.56 (pH: 7.4). For the same compound, the λabs ([7]; pH: 7.4) was 584 (pH: 7.4) nm and the λabs ([7]; pH: 7.4, listed as Si-Rhodol) was ~580 nm.
